Reference: publication PMC5771238 (Neuropharmacology, 2017)
Read-outs that look alike come from different tables or passages of the source.

Experiments:
C57/Bl6J mice = assay: THC drug discrimination; format: in vivo, mouse; details: for effect on response rates / substitution for THC when administered alone / effect on THC's discriminative stimulus effects: second group; for effect on THC's discriminative stimulus effects: modulators 10 mg/kg, rimonabant 1 mg/kg with 5.6 mg/kg THC
ICR mice = assay: Cannabinoid tetrad tests; format: in vivo, mouse; details: for effect on THC's effects on activity, hypothermia, catalepsy / effect on THC's anti-nociceptive effect: 10 mg/kg modulator i.p. 10 min before 30 mg/kg THC; for effect on THC's anti-nociceptive effect: tail flick
CB1 receptor [1] = target: T1, CB1 receptor (Mus musculus, UniProt P47746); assay: THC-stimulated [35S]GTPγS binding in mouse cerebellar membranes; format: biochemical; details: pregnenolone 1 – 10 μM
T1 sequence (P47746 whole entry): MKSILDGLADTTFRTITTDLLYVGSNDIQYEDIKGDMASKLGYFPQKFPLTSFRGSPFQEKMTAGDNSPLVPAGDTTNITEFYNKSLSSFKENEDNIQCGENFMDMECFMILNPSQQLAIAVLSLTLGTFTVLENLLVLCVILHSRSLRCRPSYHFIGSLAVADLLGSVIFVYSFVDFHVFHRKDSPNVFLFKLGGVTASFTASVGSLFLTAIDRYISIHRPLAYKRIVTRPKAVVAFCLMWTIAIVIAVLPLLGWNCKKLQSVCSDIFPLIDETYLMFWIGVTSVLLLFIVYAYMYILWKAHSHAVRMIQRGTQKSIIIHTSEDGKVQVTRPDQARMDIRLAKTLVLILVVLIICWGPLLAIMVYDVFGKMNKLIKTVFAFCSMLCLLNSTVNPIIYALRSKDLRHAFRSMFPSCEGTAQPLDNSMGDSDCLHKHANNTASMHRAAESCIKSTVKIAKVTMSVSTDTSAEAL

CB1 receptor [2] = target: T1, CB1 receptor; assay: biochemical; details: pKB ± SEM
CB1 receptor [3] = target: T1, CB1 receptor
CB1 receptor [4] = target: T1, CB1 receptor; assay: [3H]CP55,940 specific binding
mice = assay: Feeding in mice; format: in vivo, mouse; details: 30 mg/kg; unpublished results
CB1 receptor [5] = target: T1, CB1 receptor; assay: CP55,940-stimulated [35S]GTPγS binding in mouse cerebellar membranes; format: biochemical; details: for alpha ± SEM (binding cooperativity with CP55,940) / beta ± SEM (efficacy modifier): allosteric operational model, logKA=−6.6, Emax=100, TA=14, TB=0, n=1, LogKB from [3H]SR141716 binding
[6] = 1 nM [3H]SR141716, allosteric ternary complex model, no GDP
[7] = 3 parameter non-linear regression

Row | SMILES | effect on response rates (C57/Bl6J mice) | substitution for THC when administered alone (C57/Bl6J mice) | effect on THC's discriminative stimulus effects (C57/Bl6J mice) | effect on THC-stimulated [35S]GTPγS binding (CB1 receptor [1]) | logα ± SEM (cooperativity with [3H]SR141716) (CB1 receptor [3]; [6]) | effect on THC's effects on activity, hypothermia, catalepsy (ICR mice) | effect on THC's anti-nociceptive effect (ICR mice) | Top ± SEM (maximal increase in specific binding of [3H]CP55,940) (CB1 receptor [4]; [7]) | alpha ± SEM (binding cooperativity with CP55,940) (CB1 receptor [5]) | beta ± SEM (efficacy modifier) (CB1 receptor [5]) | also measured
1 | Cc1c(C(=O)NN2CCCCC2)nn(-c2ccc(Cl)cc2Cl)c1-c1ccc(Cl)cc1 [SR141716, rimonabant] | significantly decreased response rates | without substituting themselves when administered alone | blocked THC’s discriminative stimulus effects |  |  |  |  |  |  |  | effect on locomotor activity in combination with THC (ICR mice; 3 mg/kg rimonabant and 30 mg/kg THC): increased activity; reversal of THC-induced antinociception, hypothermia, catalepsy (ICR mice; 3 mg/kg rimonabant i.p. before 30 mg/kg THC): rimonabant-reversible; effect on locomotor activity, anti-nociception, rectal temperature, catalepsy when followed by vehicle injection (ICR mice; 10 mg/kg modulator or 3 mg/kg rimonabant i.p., vs vehicle/vehicle): did not have any effect
2 | CC(=O)[C@H]1CC[C@H]2[C@@H]3CC=C4C[C@@H](O)CC[C@]4(C)[C@H]3CC[C@]12C [pregnenolone] |  |  |  |  |  |  |  |  |  |  | substitution and response rate effects in combination with vehicle (C57/Bl6J mice; first group, compound alone): neither compound produced substitution or response rate effects; effect on THC's effects in the cannabinoid tetrad (ICR mice; stated in abstract only): did not block THC’s effects
3 | O=C(Nc1ccc(Cl)cc1)Nc1cccc(-c2cccc(N3CCCC3)n2)c1 [PSNCBAM-1, 1-(4-chlorophenyl)-3-{3-[6-(pyrrolidin-1-yl)pyridin-2-yl]phenyl}urea] | Neither compound decreased response rates |  | did not alter THC’s discriminative stimulus effects | produced insurmountable antagonism | −0.73 ± 0.12 | did not alter | decreased THC’s anti-nociceptive effect | 419.1 ± 8.75 | 55.01 ± 3.76 | 0.003 ± 0.001 | Kb (CB1 receptor [2]; [6]): 0.195 µM; Kb (CB1 receptor [2]; in presence of 30 μM GDP): 1.82 µM; EC50 (CB1 receptor [4]): 0.295 µM; effect on feeding in mice (mice): did not observe an effect; IC50 (CB1 receptor [5]; IC50, at 100 nM CP55,940): 0.0492 µM; IC50 (CB1 receptor [5]; pIC50 ± SEM, CP55,940 10 nM): 0.0832 µM; IC50 (CB1 receptor [5]; pIC50 ± SEM, CP55,940 1 μM): 0.0398 µM; IC50 (CB1 receptor [5]; pIC50 ± SEM, CP55,940 10 μM): 0.0501 µM
4 | N#Cc1ccc(NC(=O)Nc2cccc(-c3cccc(N4CCCC4)n3)c2)cc1 [RTICBM-28] | Neither compound decreased response rates |  | lowered THC potency | produced insurmountable antagonism | −1.13 ± 0.18 | did not alter | but not RTICBM-15 or RTICBM-28, decreased THC’s anti-nociceptive effect | 477.5 ± 15.14 | 201.1 ± 11.95 | 0.001 ± 0.001 | pKB ± SEM (CB1 receptor [3]; [6]): 6.65 ± 0.11; pKB ± SEM (CB1 receptor [3]; in presence of 30 μM GDP): 5.86 ± 0.10; pEC50 ± SEM for increase in specific binding of [3H]CP55,940 (CB1 receptor [4]; [7]): 6.61 ± 0.07; pIC50 ± SEM (CB1 receptor [5]; CP55,940 10 nM): 7.34 ± 0.05; pIC50 ± SEM (CB1 receptor [5]; CP55,940 1 μM): 7.72 ± 0.03; pIC50 ± SEM (CB1 receptor [5]; CP55,940 10 μM): 7.59 ± 0.03
5 | CCNC1(C(N)=O)CCN(c2ncnc3c2nc(-c2ccccc2Cl)n3-c2ccc(Cl)cc2)CC1 [otenabant] | significantly decreased response rates | without substituting themselves when administered alone | blocked THC’s discriminative stimulus effects |  |  |  |  |  |  |  | 
6 | CCCCCc1cc(O)c2c(c1)OC(C)(C)[C@@H]1CCC(C)=C[C@@H]21 [THC, delta-9-tetrahydrocannabinol] |  |  |  |  |  |  |  |  |  |  | effect on locomotor activity (ICR mice; THC 30 mg/kg i.p. with vehicle): did not affect locomotor activity; tetrad effects: antinociception, hypothermia, catalepsy (ICR mice; THC 30 mg/kg i.p. with vehicle): produced rimonabant-reversible antinociception (Figure 4B), hypothermia (Figure 4C), and catalepsy (Figure 4D)
